Measured values as given in ChEMBL document CHEMBL3885861, “Open TG-GATES”.

Species on record: Rattus norvegicus
Test: Open TG-GATES - Regimen: Single
Type: toxicity, organism-based, Sprague-Dawley
Design: regimen Single, gender Male, age 6 weeks
Conditions: in vivo, po, route gavage; for APTT / Bas / Eos / Fbg / Hb / Ht / Lym / MCH / MCHC / MCV / Mono / Neu / PT / Plat / RBC / Ret / WBC: tissue Blood; for KIDNEY_L / KIDNEY_R / KIDNEY_TOTAL: tissue Kidney; for LIVER: tissue Liver; for A/G / ALP / ALT / AST / BUN / CRE / Ca / Cl / DBIL / GLC / IP / K / LDH / Na / PL / RALB / TBIL / TC / TG / TP / gamma-GTP: tissue Plasma
[1] = 0 mg/kg, 3 h, dose level Control
[2] = 0 mg/kg, 6 h, dose level Control
[3] = 0 mg/kg, 9 h, dose level Control
[4] = 0 mg/kg, 24 h, dose level Control

## CN1C(C(=O)Nc2ccccn2)=C(O)c2sc(Cl)cc2S1(=O)=O [LORNOXICAM]
[1]
  TERMINAL_BW: 223 g
  APTT: 20 s
  Bas: 1%
  Eos: 1.4%
  Fbg: 213.2 mg/dL
  Hb: 13.4 g/dL
  Ht: 39.7%
  Lym: 78.8%
  MCH: 21 pg
  MCHC: 33.8%
  MCV: 62.2 fL
  Mono: 2.8%
  Neu: 16.4%
  PT: 11.9 s
  Plat: 135.7 x10_4/uL
  RBC: 638 x10_4/ul
  Ret: 6.8%
  WBC: 93 x10_2/uL
  KIDNEY_L: 1 g
  KIDNEY_R: 1 g
  KIDNEY_TOTAL: 2 g
  LIVER: 10.1 g
  A/G: 1.7
  ALP: 1010.4 IU/L
  ALT: 36.2 IU/L
  AST: 73 IU/L
  BUN: 11.8 mg/dL
  CRE: 0.4 mg/dL
  Ca: 10.5 mg/dL
  Cl: 103.4 meq/L
  DBIL: 0.076 mg/dL
  GLC: 197.2 mg/dL
  IP: 8.6 mg/dL
  K: 3.7 meq/L
  LDH: 168 IU/L
  Na: 141.4 meq/L
  PL: 133.4 mg/dL
  RALB: 3.5 g/dL
  TBIL: 0.1 mg/dL
  TC: 71.2 mg/dL
  TG: 80 mg/dL
  TP: 5.5 g/dL
  gamma-GTP: 1.4 IU/L
[2]
  TERMINAL_BW: 219.8 g
  APTT: 19.8 s
  Bas: 0.8%
  Eos: 1%
  Fbg: 221.2 mg/dL
  Hb: 13.2 g/dL
  Ht: 39.3%
  Lym: 81.2%
  MCH: 20.9 pg
  MCHC: 33.6%
  MCV: 62.1 fL
  Mono: 2.6%
  Neu: 14.2%
  PT: 12 s
  Plat: 119.7 x10_4/uL
  RBC: 632.4 x10_4/ul
  Ret: 7.2%
  WBC: 109.1 x10_2/uL
  KIDNEY_L: 0.9 g
  KIDNEY_R: 1 g
  KIDNEY_TOTAL: 1.9 g
  LIVER: 9.6 g
  A/G: 1.6
  ALP: 765.4 IU/L
  ALT: 33.4 IU/L
  AST: 68.8 IU/L
  BUN: 11 mg/dL
  CRE: 0.4 mg/dL
  Ca: 10.4 mg/dL
  Cl: 103 meq/L
  DBIL: 0.066 mg/dL
  GLC: 196.8 mg/dL
  IP: 9.1 mg/dL
  K: 3.9 meq/L
  LDH: 209.2 IU/L
  Na: 140.8 meq/L
  PL: 146 mg/dL
  RALB: 3.4 g/dL
  TBIL: 0.1 mg/dL
  TC: 84.8 mg/dL
  TG: 64.8 mg/dL
  TP: 5.6 g/dL
  gamma-GTP: 0.8 IU/L
[3]
  TERMINAL_BW: 218.6 g
  APTT: 20.3 s
  Bas: 0.8%
  Eos: 0.8%
  Fbg: 230.6 mg/dL
  Hb: 13.3 g/dL
  Ht: 39.8%
  Lym: 74.4%
  MCH: 20.9 pg
  MCHC: 33.4%
  MCV: 62.7 fL
  Mono: 3.2%
  Neu: 20.4%
  PT: 12.5 s
  Plat: 119.2 x10_4/uL
  RBC: 634.2 x10_4/ul
  Ret: 7.6%
  WBC: 126.9 x10_2/uL
  KIDNEY_L: 1 g
  KIDNEY_R: 1 g
  KIDNEY_TOTAL: 1.9 g
  LIVER: 9.3 g
  A/G: 1.7
  ALP: 766.8 IU/L
  ALT: 33.2 IU/L
  AST: 65.4 IU/L
  BUN: 9.8 mg/dL
  CRE: 0.3 mg/dL
  Ca: 10.5 mg/dL
  Cl: 103.6 meq/L
  DBIL: 0.076 mg/dL
  GLC: 197.8 mg/dL
  IP: 9.6 mg/dL
  K: 3.8 meq/L
  LDH: 162.2 IU/L
  Na: 142.2 meq/L
  PL: 136.8 mg/dL
  RALB: 3.5 g/dL
  TBIL: 0.1 mg/dL
  TC: 75.2 mg/dL
  TG: 60.6 mg/dL
  TP: 5.6 g/dL
  gamma-GTP: 1.2 IU/L
[4]
  TERMINAL_BW: 238.4 g
  APTT: 19.9 s
  Bas: 0.2%
  Eos: 1%
  Fbg: 225.8 mg/dL
  Hb: 13.5 g/dL
  Ht: 40.7%
  Lym: 80%
  MCH: 20.9 pg
  MCHC: 33.3%
  MCV: 62.6 fL
  Mono: 3.2%
  Neu: 15.2%
  PT: 11.6 s
  Plat: 133.9 x10_4/uL
  RBC: 649.4 x10_4/ul
  Ret: 6.8%
  WBC: 101.7 x10_2/uL
  KIDNEY_L: 1 g
  KIDNEY_R: 1 g
  KIDNEY_TOTAL: 2 g
  LIVER: 11.3 g
  A/G: 1.6
  ALP: 874.6 IU/L
  ALT: 35.2 IU/L
  AST: 65.8 IU/L
  BUN: 14.8 mg/dL
  CRE: 0.4 mg/dL
  Ca: 10.8 mg/dL
  Cl: 103.8 meq/L
  DBIL: 0.1 mg/dL
  GLC: 218 mg/dL
  IP: 7.3 mg/dL
  K: 4 meq/L
  LDH: 177.6 IU/L
  Na: 141.4 meq/L
  PL: 138.4 mg/dL
  RALB: 3.5 g/dL
  TBIL: 0.2 mg/dL
  TC: 69.2 mg/dL
  TG: 101.2 mg/dL
  TP: 5.6 g/dL
  gamma-GTP: 1 IU/L
1 mg/kg, 3 h, dose level Low
  TERMINAL_BW: 222.5 g
  APTT: 19.4 s
  Bas: 0.6%
  Eos: 1%
  Fbg: 219 mg/dL
  Hb: 13.5 g/dL
  Ht: 39.8%
  Lym: 78.2%
  MCH: 21.5 pg
  MCHC: 33.9%
  MCV: 63.4 fL
  Mono: 2.6%
  Neu: 17.4%
  PT: 11.6 s
  Plat: 128.4 x10_4/uL
  RBC: 627.6 x10_4/ul
  Ret: 7%
  WBC: 99.9 x10_2/uL
  KIDNEY_L: 1 g
  KIDNEY_R: 1 g
  KIDNEY_TOTAL: 2 g
  LIVER: 10 g
  A/G: 1.7
  ALP: 878.4 IU/L
  ALT: 40.6 IU/L
  AST: 71.8 IU/L
  BUN: 11 mg/dL
  CRE: 0.3 mg/dL
  Ca: 10.7 mg/dL
  Cl: 102.6 meq/L
  DBIL: 0.072 mg/dL
  GLC: 194.2 mg/dL
  IP: 9.2 mg/dL
  K: 3.7 meq/L
  LDH: 172 IU/L
  Na: 140.4 meq/L
  PL: 149.8 mg/dL
  RALB: 3.5 g/dL
  TBIL: 0.1 mg/dL
  TC: 81.8 mg/dL
  TG: 64.2 mg/dL
  TP: 5.6 g/dL
  gamma-GTP: 1.2 IU/L
1 mg/kg, 6 h, dose level Low
  TERMINAL_BW: 223 g
  APTT: 19.9 s
  Bas: 0.8%
  Eos: 1%
  Fbg: 211 mg/dL
  Hb: 13.1 g/dL
  Ht: 38.9%
  Lym: 74.8%
  MCH: 20.8 pg
  MCHC: 33.8%
  MCV: 61.7 fL
  Mono: 3.2%
  Neu: 19.8%
  PT: 12.2 s
  Plat: 126.1 x10_4/uL
  RBC: 629.8 x10_4/ul
  Ret: 6.7%
  WBC: 117.6 x10_2/uL
  KIDNEY_L: 1 g
  KIDNEY_R: 1 g
  KIDNEY_TOTAL: 2 g
  LIVER: 9.3 g
  A/G: 1.7
  ALP: 908.8 IU/L
  ALT: 44.4 IU/L
  AST: 79.6 IU/L
  BUN: 11.2 mg/dL
  CRE: 0.3 mg/dL
  Ca: 10.6 mg/dL
  Cl: 104 meq/L
  DBIL: 0.074 mg/dL
  GLC: 190.2 mg/dL
  IP: 8.6 mg/dL
  K: 4 meq/L
  LDH: 184.8 IU/L
  Na: 140.6 meq/L
  PL: 134.8 mg/dL
  RALB: 3.5 g/dL
  TBIL: 0.1 mg/dL
  TC: 72.2 mg/dL
  TG: 61.8 mg/dL
  TP: 5.5 g/dL
  gamma-GTP: 1.2 IU/L
1 mg/kg, 9 h, dose level Low
  TERMINAL_BW: 220.2 g
  APTT: 19.1 s
  Bas: 0.6%
  Eos: 0.8%
  Fbg: 220.4 mg/dL
  Hb: 13.5 g/dL
  Ht: 40.3%
  Lym: 75%
  MCH: 21.2 pg
  MCHC: 33.5%
  MCV: 63.3 fL
  Mono: 3.4%
  Neu: 20.4%
  PT: 12.2 s
  Plat: 119.8 x10_4/uL
  RBC: 636.4 x10_4/ul
  Ret: 7.4%
  WBC: 109.6 x10_2/uL
  KIDNEY_L: 1 g
  KIDNEY_R: 1 g
  KIDNEY_TOTAL: 2 g
  LIVER: 8.9 g
  A/G: 1.6
  ALP: 866.2 IU/L
  ALT: 37.8 IU/L
  AST: 68.6 IU/L
  BUN: 10.6 mg/dL
  CRE: 0.3 mg/dL
  Ca: 10.5 mg/dL
  Cl: 103 meq/L
  DBIL: 0.072 mg/dL
  GLC: 197.8 mg/dL
  IP: 9.1 mg/dL
  K: 4.1 meq/L
  LDH: 158.6 IU/L
  Na: 141 meq/L
  PL: 132.8 mg/dL
  RALB: 3.4 g/dL
  TBIL: 0.1 mg/dL
  TC: 73.2 mg/dL
  TG: 57.8 mg/dL
  TP: 5.5 g/dL
  gamma-GTP: 1.2 IU/L
1 mg/kg, 24 h, dose level Low
  TERMINAL_BW: 238.6 g
  APTT: 19.3 s
  Bas: 0.4%
  Eos: 0.8%
  Fbg: 251 mg/dL
  Hb: 13 g/dL
  Ht: 38.9%
  Lym: 69.4%
  MCH: 21.3 pg
  MCHC: 33.4%
  MCV: 63.6 fL
  Mono: 3.2%
  Neu: 26%
  PT: 11.8 s
  Plat: 121.2 x10_4/uL
  RBC: 612.8 x10_4/ul
  Ret: 6.9%
  WBC: 134.5 x10_2/uL
  KIDNEY_L: 1 g
  KIDNEY_R: 1 g
  KIDNEY_TOTAL: 2 g
  LIVER: 11.4 g
  A/G: 1.5
  ALP: 822 IU/L
  ALT: 39.6 IU/L
  AST: 68.8 IU/L
  BUN: 14.8 mg/dL
  CRE: 0.4 mg/dL
  Ca: 10.8 mg/dL
  Cl: 104 meq/L
  DBIL: 0.098 mg/dL
  GLC: 203.6 mg/dL
  IP: 7.6 mg/dL
  K: 4.1 meq/L
  LDH: 190.4 IU/L
  Na: 141 meq/L
  PL: 145.2 mg/dL
  RALB: 3.2 g/dL
  TBIL: 0.2 mg/dL
  TC: 73.8 mg/dL
  TG: 100.2 mg/dL
  TP: 5.4 g/dL
  gamma-GTP: 1.4 IU/L
